Test results from paper PMC11945486, “TAS1R2/TAS1R3 Single-Nucleotide Polymorphisms Affect Sweet Taste Receptor Activation by Sweeteners: The SWEET Project” (Nutrients, 2025).

Target: T1, mTAS1R2-WT/mTAS1R3-I60T (Mus musculus, UniProt Q925D8+Q925I4, I60T)
T1 construct: expressed in transfected cells; host or cells: HEK293T-Gα16gust44
T1 sequence (Q925I4 20-843): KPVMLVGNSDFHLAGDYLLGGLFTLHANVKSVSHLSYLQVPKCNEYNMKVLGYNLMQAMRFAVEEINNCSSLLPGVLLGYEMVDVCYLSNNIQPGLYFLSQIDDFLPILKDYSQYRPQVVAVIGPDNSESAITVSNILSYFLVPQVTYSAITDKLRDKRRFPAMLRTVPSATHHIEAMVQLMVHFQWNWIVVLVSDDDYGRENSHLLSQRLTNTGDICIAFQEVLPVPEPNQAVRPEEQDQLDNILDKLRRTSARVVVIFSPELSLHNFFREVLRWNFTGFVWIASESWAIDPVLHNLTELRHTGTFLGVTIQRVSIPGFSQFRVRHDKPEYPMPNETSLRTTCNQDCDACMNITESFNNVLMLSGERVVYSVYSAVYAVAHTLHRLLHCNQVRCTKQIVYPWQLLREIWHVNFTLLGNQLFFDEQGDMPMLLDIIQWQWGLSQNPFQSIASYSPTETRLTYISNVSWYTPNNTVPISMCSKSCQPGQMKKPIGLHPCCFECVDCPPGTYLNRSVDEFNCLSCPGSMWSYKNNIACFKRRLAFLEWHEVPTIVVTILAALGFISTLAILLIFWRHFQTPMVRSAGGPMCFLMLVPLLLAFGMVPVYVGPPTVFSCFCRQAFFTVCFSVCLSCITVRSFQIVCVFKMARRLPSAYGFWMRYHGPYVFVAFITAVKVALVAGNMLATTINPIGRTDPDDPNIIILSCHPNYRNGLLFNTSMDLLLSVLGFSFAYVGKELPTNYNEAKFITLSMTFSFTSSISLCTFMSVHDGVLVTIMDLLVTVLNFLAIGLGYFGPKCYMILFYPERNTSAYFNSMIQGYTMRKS
T1 sequence (Q925D8 21-858 I60T): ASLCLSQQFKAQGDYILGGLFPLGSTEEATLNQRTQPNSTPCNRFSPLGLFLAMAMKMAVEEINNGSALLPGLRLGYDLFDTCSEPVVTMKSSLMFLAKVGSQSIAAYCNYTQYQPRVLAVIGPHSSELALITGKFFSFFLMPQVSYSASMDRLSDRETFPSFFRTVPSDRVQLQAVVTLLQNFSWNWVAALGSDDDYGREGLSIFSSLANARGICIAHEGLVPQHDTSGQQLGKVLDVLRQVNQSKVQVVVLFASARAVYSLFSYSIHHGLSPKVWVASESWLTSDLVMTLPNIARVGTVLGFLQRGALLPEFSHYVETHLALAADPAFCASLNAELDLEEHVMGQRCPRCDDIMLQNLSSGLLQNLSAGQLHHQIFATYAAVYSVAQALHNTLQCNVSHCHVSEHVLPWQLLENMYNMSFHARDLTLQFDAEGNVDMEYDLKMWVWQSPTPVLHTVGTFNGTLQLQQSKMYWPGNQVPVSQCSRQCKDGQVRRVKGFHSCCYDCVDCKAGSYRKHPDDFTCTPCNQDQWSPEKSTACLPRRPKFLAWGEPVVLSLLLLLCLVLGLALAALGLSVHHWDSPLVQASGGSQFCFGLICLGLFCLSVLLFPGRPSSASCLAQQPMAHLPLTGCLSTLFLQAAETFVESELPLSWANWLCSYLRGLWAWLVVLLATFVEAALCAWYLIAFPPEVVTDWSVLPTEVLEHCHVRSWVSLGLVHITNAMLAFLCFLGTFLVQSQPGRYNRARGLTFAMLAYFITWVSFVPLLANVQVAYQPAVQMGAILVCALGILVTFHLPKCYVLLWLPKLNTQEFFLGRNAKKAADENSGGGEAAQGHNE
Assay: Calcium mobilisation assay, HEK293T-Gα16gust44 cells, mouse TAS1R3-I60T variant
Type: cell-based
Conditions: "-": no activation; for EC50 / Max ΔF/F0: mTAS1R2-WT + mTAS1R3-I60T; for Max ΔF/F0: maximal signal amplitude; for R1 = Variant EC50/WT EC50: mTAS1R3-I60T vs mTAS1R3-WT
Protocol: The HEK293T cells were kindly provided by Jay P. Slack (Givaudan Flavors Corporation; Cincinnati, OH, USA). HEK293T cells stably transfected with Gα16gust44 [43, 67] were seeded in poly-D-lysine-coated clear-bottom black 96-well plates (0.35 × 10^5 cells/well) in high-glucose DMEM supplemented with 2 mM GlutaMAX, 10% dialysed foetal bovine serum with penicillin/streptomycin and G418 (400 μg/mL) at 37 °C and 6.3% CO2 in a humidified atmosphere as previously reported. […] As a negative control, HEK293T cells were mock-transfected with the empty expression vector. After a further 24 h of incubation, the HEK293T cells were washed with C1 buffer (130 mM NaCl, 5 mM KCl, 10 mM HEPES pH 7.4 and 2 mM CaCl2). The 96-well plates containing the cells were then stimulated with sweet-tasting compounds. […] Different concentration ranges were tested depending on the sweet compound injected. The Ca^2+ changes were expressed as fractional changes in fluorescent light intensity: ΔF/F = (F − F0)/F0, where F was the fluorescent light intensity at each point, and F0 was the value of emitted fluorescent light prior to stimulus application. To calculate dose–response relationships, the changes in fluorescence upon stimulus application were averaged, mock-subtracted and baseline-corrected. The dose–response data obtained were adjusted using a 4-parameter logistic equation. The half-maximal effective concentrations (EC50 values) and maximal signal amplitudes were calculated using SigmaPlot software (version 15.0) (Systat Software; San Jose, CA, USA).
HEK293T-Gα16gust44 cells were transiently cotransfected with pcDNA6-MAX-mTAS1R2-FLAG, pcDNA4-MAX-mTAS1R3-WT-FLAG or pcDNA4-MAX-mTAS1R3-I60T-FLAG, and pCMV-GCaMP5G as previously described in detail. After 24 h, the cells were washed with C1 buffer and stimulated with a logarithmically increasing range of sweetener concentrations. Calcium responses during automated application were monitored using a FlexStation®3 Multi-Mode microplate reader. The dose–response curves, EC50 values and maximal signal amplitudes were calculated as previously described.
For in vitro calcium mobilisation assay performed on hTAS1R2-SNPs, hTAS1R3-SNPs and mTAS1R3-I60T, 6 to 7 concentrations were tested for each sweet compound, plus buffer alone. All concentration–receptor combinations were measured in duplicate, and each experiment was repeated at least 4 times (8 wells/concentration). Results were expressed for each concentration as ΔF/F mean ± SEM and represented as dose–response curves.

| EC50 | Max ΔF/F0 | R1 = Variant EC50/WT EC50 | Structure (SMILES) |
| --- | --- | --- | --- |
| 744 ± 19 µM | 1.03 ± 0.02 | 1.7 | CC1=CC(=O)NS(=O)(=O)O1 [Acesulfame K, acesulfame K] |
| 73 ± 2 µM | 0.71 ± 0.01 | 1.7 | C=C1C[C@@]23CC[C@H]4[C@@](C)(CCC[C@@]4(C)C(=O)O[C@@H]4O[C@H](CO)[C@@H](O)[C@H](O[C@@H]5O[C@H](CO)[C@@H](O)[C@H](O)[C@H]5O)[C@H]4O[C@@H]4O[C@H](CO)[C@@H](O)[C@H](O)[C@H]4O)[C@@H]2CC[C@]1(O[C@@H]1O[C@H](CO)[C@@H](O)[C@H](O[C@@H]2O[C@H](CO)[C@@H](O)[C@H](O)[C@H]2O)[C@H]1O[C@@H]1O[C@H](CO)[C@@H](O)[C@H](O)[C@H]1O)C3 [Rebaudioside M, rebaudioside M] |
| 1520 ± 56 µM | 1.47 ± 0.03 | 2.0 | OC[C@H]1O[C@H](O[C@]2(CCl)O[C@H](CCl)[C@@H](O)[C@@H]2O)[C@H](O)[C@@H](O)[C@H]1Cl [Sucralose] |

| Structure (SMILES) | EC50 | Max ΔF/F0 | R1 = Variant EC50/WT EC50 |
| --- | --- | --- | --- |
| C[C@H](CC[C@@H](O[C@@H]1O[C@H](CO[C@@H]2O[C@H](CO)[C@@H](O)[C@H](O)[C@H]2O)[C@@H](O)[C@H](O)[C@H]1O[C@@H]1O[C@H](CO)[C@@H](O)[C@H](O)[C@H]1O)C(C)(C)O)[C@H]1CC[C@@]2(C)[C@@H]3CC=C4[C@@H](CC[C@H](O[C@@H]5O[C@H](CO[C@@H]6O[C@H](CO)[C@@H](O)[C@H](O)[C@H]6O)[C@@H](O)[C@H](O)[C@H]5O)C4(C)C)[C@]3(C)[C@H](O)C[C@]12C [Mogroside V, mogroside V] | 225 ± 25 µM | 0.50 ± 0.03 | 1.7 |
